According to patent US20230061116A1, “TARGETING PAR1 AND PAR2 TO REGULATE LIPID AND CHOLESTEROL ABUNDANCE” (Mayo Foundation for Medical Education and Research, priority 2020, published 2023):

B1: BDNF: subtherapeutic growth factor BDNF (protein, UniProt P23560 19-247, looked up)
Neurotrophic factor BDNF …: APMKEANIRGQGGLAYPGVRTHGTLESVNGPKAGSRGLTSLADTFEHVIEELLDEDQKVRPNEENNKDADLYTSRVMLSSQVPLEPPLLFLLEEYKNYLDAANMSMRVRRHSDPARRGELSVCDSISEWVTAADKKTAVDMSGGTVTVLEKVPVSKGQLKQYFYETKCNPMGYTKEGCRGIDKRHWNSQCRTTQSYVRALTMDSKKRIGWRFIRIDTSCVCTLTIKRGR

How the values were obtained:
[1] = system: HMGCS1; assay: HMGCS1 expression in primary cortical neurons (real-time quantitative PCR); type: cell-based, murine
Protocol: FIG. 3 is a graph plotting HMGCS1 expression in cultures of primary cortical neurons treated with the PAR1 small molecule inhibitor Vorapaxar (100 nM) or vehicle control for 72 hours.
Expression of HMGCS1, an enzyme responsible for production of HMGCoA for the rate-limiting step in cholesterol biosynthesis, was quantified by real-time quantitative PCR.
HMGCS1 is responsible for production of HMGCoA for the rate-limiting step in cholesterol biosynthesis.

[2] = system: primary mouse cortical neurons; assay: Neurite outgrowth (TUJ1+ area) in primary cortical neurons; type: cell-based; details: co-treatment with subtherapeutic BDNF; 24 and 72 hours of treatment (FIG. 12)
Protocol: FIG. 12 contains a series of images showing that inhibition of PAR1 signaling accelerates neurite outgrowth in primary mouse cortical neurons. Murine neurons were cultured for 24 hours before addition of the PAR1 inhibitor Vorapaxar, subtherapeutic growth factor BDNF, or both. […] Neurite outgrowth was quantified by staining for TUJI (a cytoskeletal protein present in both axons and dendrites) and measuring TUJI+ area (the average of 5 randomly selected fields per well, 6 wells per treatment). Production of lipids and cholesterol, major constituents of neuronal membranes, was required to grow both axons and dendrites. Results are plotted in the graphs in the right panel (*P<0,05 SNK, n=6 all groups, both timepoints). […] Murine neurons were cultured for 24 hours before addition of the PAR1 inhibitor Vorapaxar, subtherapeutic growth factor BDNF, or both. […] Neurite outgrowth was quantified by staining for TUJ1 (a cytoskeletal protein present in both axons and dendrites) and measuring TUJ1+ area (the average of 5 randomly selected fields per well, 6 wells per treatment). Production of lipids and cholesterol, major constituents of neuronal membranes, was required to grow both axons and dendrites.

[3] = system: primary mouse cortical neurons; assay: Synaptogenesis (Homer puncta per TUJ1+ area) in primary cortical neurons; type: cell-based; details: co-treatment with subtherapeutic BDNF; 24 and 72 hours of treatment (FIG. 13)
Protocol: FIG. 13 contains images showing that inhibition of PAR1 signaling accelerates synaptogenesis in primary mouse cortical neurons. Murine neurons were cultured in vitro for 24 hours before addition of the PAR1 inhibitor Vorapaxar, subtherapeutic growth factor BDNF, Or both. […] Synapse density was quantified by staining for Homer, a scaffold protein concentrated at the post-synaptic densities by counting puncta in ImageJ. Synapse counts were normalized by total neurite area (TUJ1+ area) to determine the density of synapses on neurites (average of 5 randomly selected fields per well, 6 wells per treatment). Results are plotted in the graphs in the right panel *P<0.05 SNK, n=6 all groups, both timepoints). Inhibition of PAR1 signaling also accelerated synaptogenesis in primary mouse cortical neurons (FIG. 13). Murine neurons were cultured in vitro for 24 hours before addition of the PAR1 inhibitor Vorapaxar, subtherapeutic growth factor BDNF, or both. […] Synapse density was quantified by staining for Homer, a scaffold protein concentrated at the post-synaptic densities by counting puncta in ImageJ. Synapse counts were normalized by total neurite area (TUJ1+ area) to determine the density of synapses on neurites (average of 5 randomly selected fields per well, 6 wells per treatment).

[4] = system: Murine neurons; assay: Growth of new neurites after transection (scratch) injury in vitro; type: cell-based, mouse; details: co-treatment with subtherapeutic BDNF, added following scratch injury (FIG. 14)
Protocol: FIG. 14 contains a series of images showing that inhibition of PAR1 signaling accelerates growth of new neurites following transection injury in vitro. Murine neurons were cultured in vitro to confluence, and then a large wound was created by mechanically scratching the center of each field. The PAR1 inhibitor Vorapaxar, subtherapeutic growth factor BDNF, or both were added following injury. […] Results are plotted in the graph in the right panel (*P<0.05 SNK, n=6 all groups). Inhibition of PAR1 signaling accelerated growth of new neurites following transection injury in vitro (FIG. 14). Murine neurons were cultured in vitro to confluence, and then a large wound was created by mechanically scratching the center of each field. The PAR1 inhibitor Vorapaxar, subtherapeutic growth factor […], or both were added following injury.

[5] = system: primary mouse cortical neurons; assay: Neurite outgrowth under statin inhibition of cholesterol production; type: cell-based; details: statin-treated cultures
Text: Neurite outgrowth was quantified by staining for TUJ1 (a cytoskeletal protein present in both axons and dendrites) and measuring TUJ1+ area (the average of 5 randomly selected fields per well, 6 wells per treatment). *P<0.05 SNK, n=6 all groups.
Neurite outgrowth was quantified by staining for TUJ1 (a cytoskeletal protein present in both axons and dendrites) and measuring TUJ1+ area (the average of 5 randomly selected fields per well, 6 wells per treatment).

[6] = system: SH-SY5Y cells; assay: Cellular cholesterol content, amplex red colorimetric assay; type: cell-based, human; details: 100 nM, 72 hours (FIG. 22)
Protocol: FIG. 22 is a graph plotting human neuronal (SH-SY5Y) cells grown in the presence of the small molecule PAR1 inhibitor, Vorapaxar (“Vora,” at 100 nM) or control for 72 hours. […] Cholesterol content was quantified by the amplex red colorimetric assay. Finally, cholesterol levels were evaluated in a human neuronal cell line (SH-SY5Y cells) grown in the presence of the small molecule PAR1 inhibitor, Vorapaxar, for 72 hours.

Molecule	HMGCS1 expression ([1]; primary cortical neurons, 100 nM, 72 hours, vs vehicle-treated controls (FIG. 3))	expression of HMGCS1 (real-time quantitative PCR) ([1]; primary murine cortical neurons, with or without co-treatment with BDNF (FIG. 15))	production of neurites (TUJ1+ area) [2]	production of synaptic densities (Homer puncta normalized by TUJ1+ area) [3]	growth of new neurites through the injury zone (TUJ1+ area in the scratch) [4]	recovery of neurite production (TUJ1+ area) from statin treatment ([5]; agent alone (FIG. 16))	recovery of neurite production (TUJ1+ area) from statin treatment ([5]; co-treatment of PAR1 inhibitor with subtherapeutic BDNF (FIG. 16))	cellular cholesterol vs untreated cells [6]
CCOC(=O)N[C@@H]1CC[C@@H]2[C@@H](C1)C[C@H]1C(=O)O[C@H](C)[C@H]1[C@H]2/C=C/c1ccc(-c2cccc(F)c2)cn1 [Vorapaxar]	promoted increases in HMGCS1 expression	increased the expression of HMGCS1	potentiated the effect of BDNF, significantly increasing production of neurites	potentiated the effect of BDNF, significantly increasing production of synaptic densities	potentiated the effect of BDNF, significantly increasing growth of new neurites through the injury zone	did not result in recovery of neurite production	partially rescued neurite production from statin treatment	more than twice the amount of cellular cholesterol
B1						did not result in recovery of neurite production		
